We go through 22 compounds from US10323026B2, “Heterocyclic compound” (Takeda Pharmaceutical Company Limited, priority 2016, dated 2019).

The target in one test is T1, His-hMAGL (recombinant polyhistidine tagged human MAGL protein) (Homo sapiens, UniProt Q99685).
T1 construct: polyhistidine (His) (N); made in house; host or cells: E. coli BL21(DE3)
T1 sequence (Q99685 1-303): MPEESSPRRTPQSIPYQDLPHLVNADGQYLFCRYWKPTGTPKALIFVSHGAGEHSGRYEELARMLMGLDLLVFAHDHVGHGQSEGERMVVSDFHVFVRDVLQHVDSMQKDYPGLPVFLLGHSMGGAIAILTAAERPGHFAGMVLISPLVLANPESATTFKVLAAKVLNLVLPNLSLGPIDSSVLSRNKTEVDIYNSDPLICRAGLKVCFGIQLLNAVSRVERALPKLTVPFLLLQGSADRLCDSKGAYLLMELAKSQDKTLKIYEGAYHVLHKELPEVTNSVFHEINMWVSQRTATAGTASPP
Briefly: Measurement of MAGL inhibitory activity (RapidFire-mass spectrometry of arachidonic acid produced from 2-arachidonylglycerol). The test is classed as biochemical. Conditions: test compound 10 μM; His-hMAGL; substrate 2-arachidonylglycerol; 60 min preincubation. How it is done:
Furthermore, acetonitrile (50 μL) containing 3 μM arachidonic acid-d8 (Cayman Chemical Company) was added and the mixture was stirred.
The amount of arachidonic acid in the obtained enzyme reaction mixture was calculated by measuring by RapidFire-mass spectrometry and correcting by the amount of arachidonic acid-d8. High Throughput online solid phase extraction was performed using RapidFire 300™ system (Agilent Technologies, Inc.). Samples were loaded on SPE C4 cartridge (Agilent Technologies, Inc.) and desalted with 0.2 (v/v) % acetic acid (Wako Pure Chemical Industries, Ltd.) in ultrapure water/acetonitrile (70/30, v/v) at a flow rate of 1.5 mL/min, eluted at a flow rate of 0.5 mL/min with 0.2(v/v) % acetic acid dissolved in acetonitrile/ultrapure water (90/10, v/v), and injected into the mass spectrometry part. The injection needle was washed with ultrapure water (500 millisecond) and acetonitrile (500 millisecond) to minimize carry-over. […] The RapidFire300 system was controlled by RapidFire UI software version 3.6 (Agilent Technologies, Inc.).
The mass spectrometry of the resultant product was performed using API4000™ triple quadrupole mass spectrometer (AB SCIEX) equipped with an electrospray ion source (TurboIon Spray™) in a negative selected reaction monitoring (SRM) mode. The conditions of SRM are shown below. The parameters of the instrument were optimized as follows: capillary temperature 600° C., ion spray voltage −4.5 kV, collision gas 8, curtain gas 15 psi, ion source gas 1 60 psi, ion source gas 2 60 psi. The mass spectrometer was controlled by Analyst™ software version 1.5.1 (AB SCIEX). The peak area integration was analyzed using RapidFire integrator software version 3.6 (Agilent Technologies, Inc.).
MAGL inhibitory rate (%) was calculated according to the following calculation formula. (1-(arachidonic acid production amount of test compound addition group−arachidonic acid production amount of enzyme-free group)÷(arachidonic acid production amount of test compound-free group−arachidonic acid production amount of enzyme-free group))×100
For the compound `Cc1ccc(OC(C)C2CCN(C(=O)[C@H]3C[C@]4(COC(=O)N4)C3)CC2)c(F)c1` (stereo partly shown) [Example 45, (2s,4s)-2-((4-(1-(2-fluoro-4-methylphenoxy)ethyl)piperidin-1-yl)carbonyl)-7-oxa-5-azaspiro[3.4]octan-6-one], the “% inhibition (10 μM)” value was 100%. Still for that read-out and setting: in the case of `Cc1ccc(OC(C)C2CCN(C(=O)[C@H]3C[C@]4(COC(=O)N4)C3)CC2)c(F)c1` (stereo partly shown) [Example 46, (2s,4s)-2-((4-(1-(2-fluoro-4-methylphenoxy)ethyl)piperidin-1-yl)carbonyl)-7-oxa-5-azaspiro[3.4]octan-6-one] it was 100%.

Still in this test, the particulars now being: test compound 10 μM; His-hMAGL; substrate 2-arachidonylglycerol; 60 min preincubation; 10 µM.
For the compound `CC(Oc1cc(F)c(F)cc1F)C1CCN(C(=O)[C@H]2C[C@]3(COC(=O)N3)C2)CC1` (stereo partly shown) [Example 54, (2s,4s)-2-((4-(1-(2,4,5-trifluorophenoxy)ethyl)piperidin-1-yl)carbonyl)-7-oxa-5-azaspiro[3.4]octan-6-one], the “% inhibition (10 μM)” value is 101%. Same read-out and setting: in the case of `CC(Oc1cc(F)c(F)cc1F)C1CCN(C(=O)[C@H]2C[C@]3(COC(=O)N3)C2)CC1` (stereo partly shown) [Example 55, (2s,4s)-2-((4-(1-(2,4,5-trifluorophenoxy)ethyl)piperidin-1-yl)carbonyl)-7-oxa-5-azaspiro[3.4]octan-6-one] it was 100%; in that of `CC(Oc1c(F)ccc(F)c1F)C1CCN(C(=O)[C@H]2C[C@]3(COC(=O)N3)C2)CC1` (stereo partly shown) [Example 56, (2s,4s)-2-((4-(1-(2,3,6-trifluorophenoxy)ethyl)piperidin-1-yl)carbonyl)-7-oxa-5-azaspiro[3.4]octan-6-one], 100%; in that of `CC(Oc1c(F)ccc(F)c1F)C1CCN(C(=O)[C@H]2C[C@]3(COC(=O)N3)C2)CC1` (stereo partly shown) [Example 57, (2s,4s)-2-((4-(1-(2,3,6-trifluorophenoxy)ethyl)piperidin-1-yl)carbonyl)-7-oxa-5-azaspiro[3.4]octan-6-one], 100%.

Staying with this test, now noted: test compound 10 μM; His-hMAGL; substrate 2-arachidonylglycerol; 60 min preincubation; read-out: % inhibition (10 μM).
Regarding `CC(Oc1ccc(C(F)(F)F)cc1F)C1CCN(C(=O)[C@H]2C[C@]3(COC(=O)N3)C2)CC1` (stereo partly shown) [Example 35, (2s,4s)-2-((4-(1-(2-fluoro-4-(trifluororoethyl)phenoxy)ethyl)piperidin-1-yl)carbonyl)-7-oxa-5-azaspiro[3.4]octan-6-one], the inhibition at 10 µM amounted to 101%. Same read-out and setting: for `CC(Oc1c(F)ccc(F)c1F)C1CCN(C(=O)[C@H]2C[C@]3(COC(=O)N3)C2)CC1` (stereo partly shown) [Example 36, (2s,4s)-2-((4-(1-(2,3,6-trifluorophenoxy)ethyl)piperidin-1-yl)carbonyl)-7-oxa-5-azaspiro[3.4]octan-6-one] the value was 101%. Still for that read-out and setting: in the case of `CC(Oc1cc(F)c(F)cc1F)C1CCN(C(=O)[C@H]2C[C@]3(COC(=O)N3)C2)CC1` (stereo partly shown) [Example 40, (2s,4s)-2-((4-(1-(2,4,5-trifluorophenoxy)ethyl)piperidin-1-yl)carbonyl)-7-oxa-5-azaspiro[3.4]octan-6-one] it was 101%; in that of `O=C1N[C@]2(CO1)C[C@H](C(=O)N1CC(COc3cc(Br)c(C(F)(F)F)cc3F)C1)C2` [Example 41, (2s,4s)-2-((3-((5-bromo-2-fluoro-4-(trifluoromethyl)phenoxy)methyl)azetidin-1-yl)carbonyl)-7-oxa-5-azaspiro[3.4]octan-6-one], 101%. The same measure, in the same setting: for `CCC1(COc2ccc(F)cc2Cl)CCN(C(=O)[C@H]2C[C@]3(COC(=O)N3)C2)CC1` [Example 44, (2s,4s)-2-((4-((2-chloro-4-fluorophenoxy)methyl)-4-ethylpiperidin-1-yl)carbonyl)-7-oxa-5-azaspiro[3.4]octan-6-one] the value was 101%; for `CC(Oc1ccc(C2CC2)cc1F)C1CCN(C(=O)[C@H]2C[C@]3(COC(=O)N3)C2)CC1` (stereo partly shown) [Example 47, (2s,4s)-2-((4-(1-(4-cychopropyl-2-fluorophenoxy)ethyl)piperidin-1-yl)carbonyl)-7-oxa-5-azaspiro[3.4]octan-6-one], 100%. Consider `O=C1N[C@]2(CO1)C[C@H](C(=O)N1CCC(COc3ccc(F)cc3Cl)(C(F)(F)F)CC1)C2` [Example 48, (2s,4s)-2-((4-((2-chloro-4-fluorophenoxy)methyl)-4-(trifluoromethyl)piperidin-1-yl)carbonyl)-7-oxa-5-azaspiro[3.4]octan-6-one], for which the inhibition at 10 µM is 100%.

As for `O=C1N[C@]2(CO1)C[C@H](C(=O)N1CCC(COc3ccc(N4CC(F)C4)cc3Cl)CC1)C2` [Example 49, (2s,4s)-2-((4-((2-chroro-4-(3-fluoroazetidin-1-yl)phenoxy)methyl)piperidin-1-yl)carbonyl)-7-oxa-5-azaspiro[3.4]octan-6-one], the inhibition at 10 µM came out at 101%. Same read-out and setting: for `O=C1N[C@]2(CO1)C[C@H](C(=O)N1CCC(C(c3ccccc3)c3ccccc3)CC1)C2` [Example 50, (2s,4s)-2-((4-(diphenylmethyl)piperidin-1-yl)carbonyl)-7-oxa-5-azaspiro[3.4]octan-6-one] the value was 101%; for `CC(c1ccccc1)(c1ccccc1)C1CCN(C(=O)[C@H]2C[C@]3(COC(=O)N3)C2)CC1` [Example 51, (2s,4s)-2-((4-(1,1-diphenylethyl)piperidin-1-yl)carbonyl)-7-oxa-5-azaspiro[3.4]octan-6-one], 101%; for `CC1(C(F)(F)c2ccc(F)cc2Cl)CCN(C(=O)[C@H]2C[C@]3(COC(=O)N3)C2)CC1` [Example 52, (2s,4s)-2-((4-((2-chloro-4-fluorophenyl)(difluoro)methyl)-4-methylpiperidin-1-yl)carbonyl)-7-oxa-5-azaspiro[3.4]octan-6-one], 100%.

For the compound `CC1(C2CCN(C(=O)[C@H]3C[C@]4(COC(=O)N4)C3)CC2)Cc2cc(C(F)(F)F)ccc2O1` (stereo partly shown) [Example 53, (2s,4s)-2-((4-(2-methyl-5-(trifluoromethyl)-2,3-dihydro-1-benzofuran-2-yl)piperidin-1-yl)carbonyl)-7-oxa-5-azaspiro[3.4]octan-6-one], the inhibition at 10 µM was determined as 101%. On the same count and under the same terms, in the case of `O=C1N[C@]2(CO1)C[C@H](C(=O)N1CCC(C3(C(F)(F)F)Cc4cc(F)ccc4O3)CC1)C2` (stereo partly shown) [Example 58, (2s,4s)-2-((4-(5-fluoro-2-(trifluoromethyl)-2,3-dihydro-1-benzofuran-2-yl)piperidin-1-yl)carbonyl)-7-oxa-5-azaspiro[3.4]octan-6-one] it was 100%; in that of `CC(Oc1ccc(F)cc1C(F)(F)F)C1CCN(C(=O)[C@H]2C[C@]3(COC(=O)N3)C2)CC1` (stereo partly shown) [Example 59, (2s,4s)-2-((4-(1-(4-fluoro-2-(trifluoromethyl)phenoxy)ethyl)piperidin-1-yl)carbonyl)-7-oxa-5-azaspiro[3.4]octan-6-one], 100%. The same measure, in the same setting: for `O=C1N[C@]2(CO1)C[C@H](C(=O)N1CCC3(CC1)CC(Oc1ccc(F)cc1Cl)C3)C2` [Example 62, (2s,4s)-2-((2-(2-chloro-4-fluorophenoxy)-7-azaspiro[3.5]non-7-yl)carbonyl)-7-oxa-5-azaspiro[3.4]octan-6-one] the value was 100%; for `CC1(C2CCN(C(=O)[C@H]3C[C@]4(COC(=O)N4)C3)CC2)Cc2ccc(C(F)(F)F)cc2O1` (stereo partly shown) [Example 63, (2s,4s)-2-((4-(2-methyl-6-(trifluoromethyl)-2,3-dihydro-1-benzofuran-2-yl)piperidin-1-yl)carbonyl)-7-oxa-5-azaspiro[3.4]octan-6-one], 100%.
